{"source": "patent EP0299528A1", "about": "“Doxorubicin hydrochloride nonaqueous solution” (Bristol-Myers Squibb Company, priority 1987, dated 1989)", "key": {"[1]": {"experimental": "The pH is measured on solutions diluted to 1 mg/ml with water or 70% water/30% acetonitrile (v/v). […] An amount of citric acid is used which will provide a solution pH in the range of about 3-5, preferably 3-4.5.\nWe have tested a number of antioxidants including α-tocopherol, tert-butylhydroquinone (TBHQ), sodium formaldehyde bisulfite, butylated hydroxy anisole (BHA), butylated hydroxy toluene (BHT), sodium bisulfite and propyl gallate. […] Generally an amount of α-tocopherol, tert-butylhydroquinone or sodium formaldehyde bisulfite is employed in the range of about 0.1-2 mg/ml. The preferred concentration of antioxidant is about 0.5-2 mg/ml with about 2 mg/ml being most preferred.\nGlass vials may conveniently be used as the container."}, "[2]": {"experiment": "Solubility of doxorubicin HCl in nonaqueous solvents", "format": "physicochemical", "settings": "organic solvent or mixture"}, "[3]": {"settings": "cited from earlier work"}, "[4]": {"settings": "cited from earlier work; for reconstituted solution remains stable: in 0.9% NaCl solution, Ketchum, et al. 1981"}}, "note": "Structures can show the parent of a compound that is named as a salt. Where two headings read alike, the source gives them in different places."}
{"compound": "CCCCCCCC/C=C\\CCCCCCCC(=O)OCCOCC(OCCO)C1OCC(OCCO)C1OCCO", "note": "(stereo not drawn) [Tween-80]", "values": [{"measurement": "effect of additive on stability of the solutions", "setting": "[1]", "result": "did not improve stability"}]}
{"compound": "O=C(O)CC(O)(CC(=O)O)C(=O)O", "note": "[citric acid]", "values": [{"measurement": "stability of the solutions with the acid used for pH control", "setting": "[1]; acid used to reach a pH range of about 3-5", "result": "optimum stability"}]}
{"compound": "COc1cccc2c1C(=O)c1c(O)c3c(c(O)c1C2=O)C[C@@](O)(C(=O)CO)C[C@@H]3O[C@H]1C[C@H](N)[C@H](O)[C@H](C)O1", "note": "[doxorubicin HCl, doxorubicin hydrochloride]", "values": [{"measurement": "solubility", "setting": "[2]; glycerol formal, pyrrolidinones, glycerol formal, 2-pyrrolidinone and 1-methyl-2-pyrrolidinone, read-out: concentration of solutions produced", "result": "≥ 5000", "unit": "µg/mL"}, {"measurement": "solubility", "setting": "[2]; glycols with 5-10% water, propylene glycol, 1,2-dihydroxybutane, 1,3-dihydroxypropane with addition of 5-10% (v/v) water, read-out: solubility", "result": "~20000", "unit": "µg/mL"}, {"measurement": "solubility", "setting": "[2]; nonaqueous solvents, same three solvents after short-term (0.5-1 hour) warming (60-80°C) with vigorous stirring, read-out: solubility", "result": "~10000", "unit": "µg/mL"}, {"measurement": "solubility", "setting": "[2]; nonaqueous solvents, with heating, polyethylene glycols, ethanol, benzyl alcohol, dimethylisosorbide, ethyl lactate, Solketol, Cremophors, Pluronics, read-out: solubility", "result": "< 5000", "unit": "µg/mL"}, {"measurement": "solubility", "setting": "[2]; propylene glycol, 1,2-dihydroxybutane, 1,3-dihydroxypropane, room temperature, in propylene glycol, 1,2-dihydroxybutane and 1,3-dihydroxypropane, read-out: solubility", "result": "< 5000", "unit": "µg/mL"}, {"measurement": "pH of maximum stability", "setting": "[3]; Tris or phosphate buffers using HCl to adjust pH, Janssen, et al. 1985", "result": 4}, {"measurement": "pH of optimum stability", "setting": "[3]; reconstitution solvent 5% Dextrose Injection, USP, Poochikian, et al. 1981", "result": "~4.5"}, {"measurement": "chemical stability of solutions", "setting": "[1]; glycerol formal, 2-pyrrolidinone and 1-methyl-2-pyrrolidinone", "result": "chemically unstable"}, {"measurement": "potency loss", "setting": "[1]; short-term (0.5-1 hour) warming (60-80°C) in propylene glycol, 1,2-dihydroxybutane or 1,3-dihydroxypropane", "result": "no potency loss"}, {"measurement": "physical stability of the solution on storage", "setting": "[1]; stored at 4°C to -20°C, seeding with crystalline doxorubicin HCl does not affect crystallization", "result": "remains in solution"}, {"measurement": "reconstituted solution remains stable", "setting": "[4]; 5°C", "result": "seven"}, {"measurement": "reconstituted solution remains stable", "setting": "[4]; room temperature", "result": "seven"}, {"measurement": "reconstituted solutions stable (≦10% potency loss)", "setting": "[4]; refrigerated at 4°C, Hoffman, et al. 1979", "result": "up to six"}]}
{"compound": "O=S(=O)(O)CO", "note": "[sodium formaldehyde bisulfite]", "values": [{"measurement": "stability of the solutions with the antioxidant", "setting": "[1]", "result": "resulted in the desired stability"}]}
{"compound": "CC(C)(C)c1cc(O)ccc1O", "note": "[tert-butylhydroquinone]", "values": [{"measurement": "stability of the solutions with the antioxidant", "setting": "[1]; elevated temperatures as well as room temperature (25°C) or below", "result": "resulted in the desired stability"}]}
{"compound": "Cc1c(C)c2c(c(C)c1O)CCC(C)(CCCC(C)CCCC(C)CCCC(C)C)O2", "note": "(stereo not drawn) [α-tocopherol]", "values": [{"measurement": "stability of the solutions with the antioxidant", "setting": "[1]", "result": "resulted in the desired stability"}]}
